Consider five compounds from patent US20210260010A1, “COMPOSITIONS AND METHODS FOR THE REDUCTION OR TREATMENT OF INFLAMMATION” (AXCELLA HEALTH INC., priority 2018, published 2021).

In the experiment the test system is IL-6. As to the kind of experiment: LPS-induced IL-6 secretion in primary human monocyte-derived macrophages (ELISA). The experiment is classed as cell-based. As to conditions: for IL-6 Measurements Mean: LPS 0.15 ng/mL, baseline subtracted; for LPS-induced IL-6 secretion: macrophages, 0.15 ng/mL LPS. As to the method:
Unpurified buffy coats (Research Blood Components) were carefully poured into 50 mL centrifuge tubes and diluted with room temperature Dulbecco's Phosphate Buffered Saline (dPBS) with Calcium and Magnesium (Gibco). Diluted buffy coats were further divided into four total 50 mL centrifuge tubes at 20 mL per tube. Lymphocyte Separation Medium (Corning) was carefully pipetted to the bottom of each centrifuge tube. Mixtures were centrifuged at 850× g for 32 minutes at 20° C. with 0 deceleration and acceleration.
The PBMC layer was separated from other components after centrifugation and added to new 50 mL centrifuge tube containing 25 mL dPBS. Total volume was brought up to 50 mL with dPBS and centrifuged at 600×g for 10 minutes at 20° C. with acceleration of 9, deceleration of 5. Supernatant was carefully removed from cell pellets. The cell pellets were resuspended using 10 mL dPBS. Total volume was then brought up to 50 mL using dPBS and centrifuged at 450×g for 5 min at 20° C. with acceleration of 9, deceleration of 9. The supernatant removal and cell pellet resuspension was repeated again.
The supernatant was then carefully removed from cell pellets. Cell pellets were resuspended in 10 mL dPBS without calcium or magnesium and filtered through a 70 uM cell strainer. The total PBMC number was determined using a Cellometer K2 automated cell counter. A total of 5E6 cells were saved for flow cytometric analysis. Remaining cells were centrifuged at 490×g for 5 minutes at 20° C. with acceleration of 9, deceleration of 9.
CD14+ cells were selected using EasySep™ Human CD14 Positive Selection Kit II ([…] Technologies). Cells were resuspended in cold EasySep™ Buffer ([…] Technologies) at 1×10^8 cells/mL. A total of 100 uL/mL EasySep™ Human CD14 Positive Selection Cocktail II was added to the cell suspension, mixed, and incubated at room temperature for 10 minutes. A total of 100 uL/mL RapidSpheres were added to the mixture and incubated at room temperature for 3 minutes after mixing, then RoboSep buffer was added to bring up the total volume to 10 mL. The mixture in a 15 mL tube was placed in magnet and incubated at room temperature for 3 minutes. Supernatant was discarded and 10 mL fresh EasySep™ buffer was added to 15 mL tube. The addition of RoboSep buffer, mixing, and discarding of supernatant was repeated two more times.
Negative and positive fractions were centrifuged at 490×g for 5 minutes at 20° C. with acceleration of 9, deceleration of 9, and resuspended in DMEM (Gibco) and 10% Heat Inactivated Fetal Bovine Serum (Atlanta Bio) and Penicillin/Streptomycin. Cells were counted and centrifuged again at 490× g for 5 minutes at 20° C. with acceleration of 9, deceleration of 9. After centrifugation, cell were resuspended in DMEM (Gibco) and 10% Heat Inactivated Fetal Bovine Serum (Atlanta Bio) and Penicillin/Streptomycin containing 500 U/mL […] and plated at 1-2×10^6 cells/mL on 10 cm tissue culture plates. Cells were kept in 37° C., 5% CO2 in between feedings/harvest.
Cells were fed every 3-4 days by removing media and unattached cells, centrifuging at 490× g for 5 minutes at 20° C. with acceleration of 9, deceleration of 9, and resuspending in fresh DMEM (Gibco) and 10% Heat Inactivated Fetal Bovine Serum (Atlanta Bio) and Penicillin/Streptomycin containing GM-CSF. Resuspended cells were seeded back onto 10 cm tissue culture plates and incubated at 37° C., 5% CO2. Differentiated macrophages were used for subsequent experiments.
Primary human PMBC derived macrophages were seeded on day 0 at 3.0E4 cells per well in 96-well microplates (ThermoFisher) in Dulbecco's Modified Eagle Medium (DMEM) (Gibco) supplemented with penicillin-streptomycin (Hyclone) and 10% heat inactivated fetal bovine serum (HI-FBS) (Atlanta Bio) and incubated overnight at 37° C., 5% CO2. On day 1, cells were washed once with 150 uL per well DPBS (Gibco) and treated with 75 uL of: • a. […]

On to `CC(=O)N[C@@H](CS)C(=O)O` [NAC, N-acetylcysteine], for which the “IL-6 Measurements Mean” value is recorded as 0 (Donor 1, Conc. 0 X (baseline)); 308.1772 (Donor 1, Conc. 5 X); −121.142 (Donor 1, Conc. 10 X); −553.802 (Donor 1, Conc. 20 X); −914.194 (Donor 1, Conc. 40 X); −2.4E−15 (Donor 2, Conc. 0 X (baseline)). Besides, the “IL-6 Measurements Mean” value is recorded as −0.7946 (Donor 2, Conc. 5 X); −9.751 (Donor 2, Conc. 10 X); −24.9999 (Donor 2, Conc. 20 X); −33.7585 (Donor 2, Conc. 40 X); −9.5E−15 (Donor 3, Conc. 0 X (baseline)); −70.3269 (Donor 3, Conc. 5 X). Also, the “IL-6 Measurements Mean” value by setting is: (Donor 3, Conc. 10 X) −103.586; (Donor 3, Conc. 20 X) −122.656; (Donor 3, Conc. 40 X) −140.851. Also, the “LPS-induced IL-6 secretion” value reads like this: (Donor 1) “significantly reduced”; (Donor 2) “significantly reduced”; (Donor 3) “significantly reduced”.
For the compound `CC(C)[C@H](N)C(=O)O` [Valine, L-Valine], the “IL-6 Measurements Mean” value was 0 (Donor 1, Conc. 234 μM (baseline)); −85.9843 (Donor 1, Conc. 4684 μM); −97.25 (Donor 1, Conc. 11710 μM); −106.268 (Donor 1, Conc. 23420 μM); −4.7E−15 (Donor 2, Conc. 234 μM (baseline)); −4.528 (Donor 2, Conc. 4684 μM). The “IL-6 Measurements Mean” value by setting is: (Donor 2, Conc. 11710 μM) −1.196; (Donor 2, Conc. 23420 μM) 4.396; (Donor 3, Conc. 234 μM (baseline)) 4.26E−14; (Donor 3, Conc. 4684 μM) −30.0609; (Donor 3, Conc. 11710 μM) −43.8022; (Donor 3, Conc. 23420 μM) −29.2004.
As for `N=C(N)NCCC[C@H](N)C(=O)O` [Arginine, L-Arginine], the “IL-6 Measurements Mean” value (Donor 1, Conc. 109 μM (baseline)) is 0; the “IL-6 Measurements Mean” value (Donor 1, Conc. 1088 μM) was −181.36; the “IL-6 Measurements Mean” value (Donor 1, Conc. 2720 μM) was −186.57; the “IL-6 Measurements Mean” value (Donor 1, Conc. 5440 μM) came out at 357.4394; the “IL-6 Measurements Mean” value (Donor 2, Conc. 109 μM (baseline)) is listed as 2.37E−15; the “IL-6 Measurements Mean” value (Donor 2, Conc. 1088 μM) is listed as −9.701. The “IL-6 Measurements Mean” value by setting is: (Donor 2, Conc. 2720 μM) −13.6102; (Donor 2, Conc. 5440 μM) −12.4164; (Donor 3, Conc. 109 μM (baseline)) 0; (Donor 3, Conc. 1088 μM) 31.5786; (Donor 3, Conc. 2720 μM) −7.503; (Donor 3, Conc. 5440 μM) −6.81. For the same compound, the “LPS-induced IL-6 secretion” value (Donor 1) was “increased”.
On to `CC(C)C[C@H](N)C(=O)O` [Leucine, L-Leucine], for which the “IL-6 Measurements Mean” value reads like this: (Donor 1, Conc. 153 μM (baseline)) 0; (Donor 1, Conc. 3054 μM) 244.9743; (Donor 1, Conc. 7635 μM) −69.9873; (Donor 1, Conc. 15270 μM) 84.46; (Donor 2, Conc. 153 μM (baseline)) 7.11E−15; (Donor 2, Conc. 3054 μM) 29.61. For the same compound, the “IL-6 Measurements Mean” value (Donor 2, Conc. 7635 μM) is reported as 30.46 and the “IL-6 Measurements Mean” value (Donor 2, Conc. 15270 μM) is reported as 47.6. The “LPS-induced IL-6 secretion” value (Donor 2) is recorded as “increased”.
For the compound `NC(=O)CC[C@H](N)C(=O)O` [Glutamine, L-Glutamine], the “IL-6 Measurements Mean” value reads like this: (Donor 1, Conc. 749 μM (baseline)) 0; (Donor 1, Conc. 3747 μM) 291.5443; (Donor 1, Conc. 11242 μM) 397.1745; (Donor 1, Conc. 22484 μM) 440.1437; (Donor 2, Conc. 749 μM (baseline)) 2.37E−15; (Donor 2, Conc. 3747 μM) 22.52. Also, the “IL-6 Measurements Mean” value by setting is: (Donor 2, Conc. 11242 μM) 63.31; (Donor 2, Conc. 22484 μM) 34.39; (Donor 3, Conc. 749 μM (baseline)) 3.79E−14; (Donor 3, Conc. 3747 μM) 25.35; (Donor 3, Conc. 11242 μM) 98.4903; (Donor 3, Conc. 22484 μM) 108.5158. Also, the “LPS-induced IL-6 secretion” value (Donor 1) is given as “increased”, the “LPS-induced IL-6 secretion” value (Donor 2) is listed as “increased” and the “LPS-induced IL-6 secretion” value (Donor 3) is reported as “significantly increased”.
